What is called IC50 is the midpoint of a concentration-inhibition curve.

Each structure is given as a SMILES string.

This is an account of results in paper PMC9268025, “GC-MS/MS Quantification of EGFR Inhibitors, β-Sitosterol, Betulinic Acid, (+) Eriodictyol, (+) Epipinoresinol, and Secoisolariciresinol, in Crude Extract and Ethyl Acetate Fraction of Thonningia sanguinea” (Molecules, 2022).

The assay concerns the target epidermal growth factor receptor (EGFR) (Homo sapiens, UniProt P00533). In words: ADP-Glo EGFR kinase inhibition assay (Promega V9261), eight concentrations. It is filed as biochemical. For orientation: ADP-Glo turns the ADP formed in a reaction into a luminescent signal.

Sequence of epidermal growth factor receptor (EGFR) (P00533 25-1210): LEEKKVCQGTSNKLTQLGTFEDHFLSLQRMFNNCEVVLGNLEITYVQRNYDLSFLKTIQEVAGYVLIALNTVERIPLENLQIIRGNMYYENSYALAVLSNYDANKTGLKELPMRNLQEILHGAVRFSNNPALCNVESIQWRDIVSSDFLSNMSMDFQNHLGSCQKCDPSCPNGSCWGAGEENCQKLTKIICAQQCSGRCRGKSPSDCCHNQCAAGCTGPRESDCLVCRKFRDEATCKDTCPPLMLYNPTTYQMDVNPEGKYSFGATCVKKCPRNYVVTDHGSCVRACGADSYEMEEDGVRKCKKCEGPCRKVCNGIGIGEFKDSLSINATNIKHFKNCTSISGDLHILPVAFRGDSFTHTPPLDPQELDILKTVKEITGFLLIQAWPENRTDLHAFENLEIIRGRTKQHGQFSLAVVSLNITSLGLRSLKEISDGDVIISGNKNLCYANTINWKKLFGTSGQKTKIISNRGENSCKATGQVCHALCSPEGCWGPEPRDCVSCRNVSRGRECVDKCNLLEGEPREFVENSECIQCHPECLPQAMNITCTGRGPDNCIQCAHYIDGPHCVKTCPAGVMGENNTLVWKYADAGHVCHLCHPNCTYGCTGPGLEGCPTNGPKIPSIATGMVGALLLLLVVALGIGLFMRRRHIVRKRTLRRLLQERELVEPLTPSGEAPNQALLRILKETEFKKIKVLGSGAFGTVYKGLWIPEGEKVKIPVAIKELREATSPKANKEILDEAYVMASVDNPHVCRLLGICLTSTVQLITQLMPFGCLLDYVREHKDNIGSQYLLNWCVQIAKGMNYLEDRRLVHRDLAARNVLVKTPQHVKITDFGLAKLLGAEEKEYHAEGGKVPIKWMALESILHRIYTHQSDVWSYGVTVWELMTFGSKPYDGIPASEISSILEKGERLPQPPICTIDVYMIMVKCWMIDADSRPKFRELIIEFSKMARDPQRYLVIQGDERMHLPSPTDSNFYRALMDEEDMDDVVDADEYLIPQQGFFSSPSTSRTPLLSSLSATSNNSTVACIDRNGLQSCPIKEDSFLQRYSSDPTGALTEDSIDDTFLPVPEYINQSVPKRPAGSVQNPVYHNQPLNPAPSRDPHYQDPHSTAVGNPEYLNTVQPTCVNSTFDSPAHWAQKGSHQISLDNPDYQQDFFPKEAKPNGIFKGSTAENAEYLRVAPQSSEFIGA

Consider `COc1cc(C[C@@H](CO)[C@H](CO)Cc2ccc(O)c(OC)c2)ccc1O` [Secoisolariciresinol], for which the IC50 worked out at 80.3 nM. On to `O=C1C[C@@H](c2ccc(O)c(O)c2)Oc2cc(O)cc(O)c21` [(+) Eriodictyol], for which the IC50 came out at 76.2 nM.
